From PMC3065546 (Pain, 2011)
Like-named read-outs stand apart in the source and are kept apart here.

Tests used:
human δ opioid receptor = human δ opioid receptor (Homo sapiens, UniProt P41143); assay: Opioid receptor binding, [3H]naltrindole, CHO cell membranes
[1] = biological target: T1, cDNA-expressed human CYP2C19 (Homo sapiens, UniProt P33261); assay: biochemical
human κ opioid receptor = human κ opioid receptor (Homo sapiens, UniProt P41145); assay: Opioid receptor binding, [3H]U69,593, CHO cell membranes
human κ opioid receptor, sequence (P41145 whole entry): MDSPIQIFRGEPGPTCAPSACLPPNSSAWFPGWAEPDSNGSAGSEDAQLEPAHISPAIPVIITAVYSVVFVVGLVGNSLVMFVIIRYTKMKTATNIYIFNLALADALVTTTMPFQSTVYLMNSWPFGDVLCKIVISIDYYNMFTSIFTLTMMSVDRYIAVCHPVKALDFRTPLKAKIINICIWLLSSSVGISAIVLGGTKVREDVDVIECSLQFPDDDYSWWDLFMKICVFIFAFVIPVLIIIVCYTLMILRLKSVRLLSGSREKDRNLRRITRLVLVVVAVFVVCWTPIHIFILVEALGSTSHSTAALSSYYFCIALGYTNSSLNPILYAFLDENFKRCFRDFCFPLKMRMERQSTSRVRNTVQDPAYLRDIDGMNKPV

nociceptive thresholds = format: in vivo, rat; conditions: for Antinociceptive effects of inhibitor alone: icv 50, 250, 500 nmol (fluconazole 250 and 500 nmol), TF or HP; for Antinociception of inhibitor alone: large icv doses (250-500 nmol), 7 – 11 min after administration, TF and HP; for Antagonism of azole-induced antinociception by naltrexone: naltrexone 5 mg/kg i.p. pre-treatment, TF 11 min post-icv azole
human μ opioid receptor = human μ opioid receptor (Homo sapiens, UniProt P35372); assay: Opioid receptor binding, [3H]DAMGO, CHO cell membranes
human μ opioid receptor, sequence (P35372 whole entry): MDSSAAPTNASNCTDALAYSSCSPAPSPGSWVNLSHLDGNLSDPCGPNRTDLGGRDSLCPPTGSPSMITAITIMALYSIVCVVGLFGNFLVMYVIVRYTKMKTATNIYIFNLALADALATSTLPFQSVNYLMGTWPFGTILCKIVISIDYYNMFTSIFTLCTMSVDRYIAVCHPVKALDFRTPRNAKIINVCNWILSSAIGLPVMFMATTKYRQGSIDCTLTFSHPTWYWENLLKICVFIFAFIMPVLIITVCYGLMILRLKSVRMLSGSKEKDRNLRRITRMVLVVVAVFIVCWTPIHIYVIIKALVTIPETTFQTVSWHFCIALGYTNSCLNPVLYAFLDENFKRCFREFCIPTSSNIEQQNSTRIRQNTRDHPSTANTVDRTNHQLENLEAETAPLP

human H3 receptor = human H3 receptor (Homo sapiens, UniProt Q9Y5N1); format: binding
human H3 receptor, sequence (Q9Y5N1 whole entry): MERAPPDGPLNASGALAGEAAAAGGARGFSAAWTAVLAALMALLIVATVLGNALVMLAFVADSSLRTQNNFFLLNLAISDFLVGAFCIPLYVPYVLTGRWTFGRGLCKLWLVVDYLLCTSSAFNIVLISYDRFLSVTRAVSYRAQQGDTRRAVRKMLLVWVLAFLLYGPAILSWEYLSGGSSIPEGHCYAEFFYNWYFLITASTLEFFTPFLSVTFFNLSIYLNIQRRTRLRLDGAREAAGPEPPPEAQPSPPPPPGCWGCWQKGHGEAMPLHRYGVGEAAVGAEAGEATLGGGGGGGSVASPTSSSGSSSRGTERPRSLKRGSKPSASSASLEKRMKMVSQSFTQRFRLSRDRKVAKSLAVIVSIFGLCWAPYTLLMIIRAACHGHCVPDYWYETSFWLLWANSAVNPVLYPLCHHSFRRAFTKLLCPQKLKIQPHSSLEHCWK

improgan antinociception [2] = format: in vivo; conditions: improgan 250 nmol icv, TF
[3] = system: brain form of heme oxygenase; conditions: ref Suppl. Table 1; cited from earlier work
improgan antinociception [4] = format: in vivo, mouse; conditions: for Decrease of average improgan antinociception in Cpr^low vs control mice: improgan 145 nmol icv
[5] = biological target: T1, cDNA-expressed human CYP2C19; conditions: read-out: Ki CYP2C19; cited from earlier work

human δ opioid receptor, sequence (P41143 whole entry): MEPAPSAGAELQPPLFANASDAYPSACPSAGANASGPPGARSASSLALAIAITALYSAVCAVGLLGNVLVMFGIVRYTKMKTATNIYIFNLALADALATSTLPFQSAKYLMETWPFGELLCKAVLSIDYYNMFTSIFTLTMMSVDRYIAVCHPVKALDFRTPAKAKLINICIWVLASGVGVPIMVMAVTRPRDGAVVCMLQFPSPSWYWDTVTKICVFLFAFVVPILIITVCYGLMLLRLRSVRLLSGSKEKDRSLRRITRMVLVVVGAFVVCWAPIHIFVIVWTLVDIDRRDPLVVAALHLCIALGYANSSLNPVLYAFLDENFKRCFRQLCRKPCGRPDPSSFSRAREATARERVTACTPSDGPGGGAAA
T1 sequence (P33261 whole entry): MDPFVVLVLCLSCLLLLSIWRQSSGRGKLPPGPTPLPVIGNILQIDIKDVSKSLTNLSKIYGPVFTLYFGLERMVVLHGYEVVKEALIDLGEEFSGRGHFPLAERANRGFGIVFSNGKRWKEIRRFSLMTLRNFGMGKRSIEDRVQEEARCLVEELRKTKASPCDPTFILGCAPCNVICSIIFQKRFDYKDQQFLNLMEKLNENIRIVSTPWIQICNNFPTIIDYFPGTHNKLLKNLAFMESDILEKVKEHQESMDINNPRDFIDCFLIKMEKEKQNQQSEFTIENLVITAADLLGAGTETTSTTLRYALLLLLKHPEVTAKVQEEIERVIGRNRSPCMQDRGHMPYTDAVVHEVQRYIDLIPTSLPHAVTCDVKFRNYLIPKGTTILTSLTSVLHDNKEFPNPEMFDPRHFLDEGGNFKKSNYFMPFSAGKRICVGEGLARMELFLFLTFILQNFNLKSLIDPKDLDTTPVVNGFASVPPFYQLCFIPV

**Q.** What does the source list for Clc1ccccc1C(c1ccccc1)(c1ccccc1)n1ccnc1 [Clotrimazole, clotrimazole]?
**A.** Ki (human δ opioid receptor): 770 ± 25 nM; Ki [1]: 316 nM; Ki (human κ opioid receptor): 260 ± 8.7 nM; Antinociceptive effects of inhibitor alone (nociceptive thresholds): no significant antinociceptive effects

**Q.** Which Ki (human δ opioid receptor) does the source give for Clc1ccc(COC(Cn2ccnc2)c2ccc(Cl)cc2Cl)c(Cl)c1 (stereo not drawn) [Miconazole, miconazole] here?
**A.** The Ki was 590 ± 29 nM.

**Q.** What about the Ki (human μ opioid receptor) of the same compound?
**A.** The Ki was 1400 nM.

**Q.** And the Ki (human κ opioid receptor)?
**A.** Its Ki is 760 ± 120 nM.

**Q.** What about the Ki (human H3 receptor) of the same compound?
**A.** The Ki was 4470 nM.

**Q.** And the “Antagonism of improgan antinociception” value (improgan antinociception [2]; inhibitor 10 nmol icv)?
**A.** Its value is “nearly-complete antagonism”.

**Q.** What about the “Antinociception of inhibitor alone” value (nociceptive thresholds) of the same compound?
**A.** The value was “notable antinociception”.

**Q.** What about the “Antagonism of azole-induced antinociception by naltrexone” value (from here on “Antagonism … by naltrexone”) (nociceptive thresholds) of the same compound?
**A.** Its value is “did not achieve robust statistical significance”.

**Q.** For Clc1ccc(CSC(Cn2ccnc2)c2ccc(Cl)cc2Cl)cc1 (stereo not drawn) [Sulconazole, sulconazole], which “Antagonism … by naltrexone” value (nociceptive thresholds) is on record?
**A.** The value was “completely blocked”.

**Q.** For OC(Cn1cncn1)(Cn1cncn1)c1ccc(F)cc1F [Fluconazole, fluconazole], which “Inhibition of the brain form of heme oxygenase” value [3] is on record?
**A.** Its value is “do not inhibit”.

**Q.** And the “Antagonism of improgan antinociception” value (improgan antinociception [2]; inhibitor 100 nmol icv)?
**A.** Its value is “nearly-complete antagonism”.

**Q.** And the “Antinociceptive effects of inhibitor alone” value (nociceptive thresholds)?
**A.** Its value is “no significant antinociceptive effects”.

**Q.** For CN/C(=N\C#N)NCCCc1c[nH]cn1 [Improgan], which “Antinociception in wild-type mice” value (improgan antinociception [4]; 145 nmol icv, 10 - 30 min after administration, tail immersion) is on record?
**A.** Its value is “significant, near-maximal antinociception”.

**Q.** What about the “Decrease of average improgan antinociception in Cpr^low vs control mice” value (“Decrease” for short) (improgan antinociception [4]; no CC12, 10 min) of the same compound?
**A.** Its value is 59%.

**Q.** And the “Decrease” value (improgan antinociception [4]; no CC12, 20 min)?
**A.** The value was 37%.

**Q.** And the “Decrease” value (improgan antinociception [4]; no CC12, 30 min)?
**A.** The value was 41%.

**Q.** With C#CCOc1ccccc1CCCCCC(=O)NS(C)(=O)=O [MS-PPOH, N-methylsulfonyl-6-(2-propargyloxyphenyl)hexanamide] as the compound, how does the Ki (human δ opioid receptor) read?
**A.** Its Ki is greater than 10000 nM.

**Q.** And the Ki (human μ opioid receptor)?
**A.** The Ki was greater than 10000 nM.

**Q.** And the Ki [5]?
**A.** Its Ki is greater than 10000 nM.

**Q.** What about the Ki (human κ opioid receptor) of the same compound?
**A.** The Ki was greater than 10000 nM.

**Q.** And the Ki (human H3 receptor)?
**A.** The Ki was 22200 nM.

**Q.** What about the “Attenuation of improgan antinociception” value (improgan antinociception [2]; inhibitor 30 nmol icv) of the same compound?
**A.** Its value is “virtually complete attenuation”.

**Q.** Which Ki (human δ opioid receptor) does the source give for CC(=O)N1CCN(c2ccc(OCC3COC(Cn4ccnc4)(c4ccc(Cl)cc4Cl)O3)cc2)CC1 (stereo not drawn) [Ketoconazole, ketoconazole] here?
**A.** The Ki was greater than 10000 nM.

**Q.** What about the Ki (human μ opioid receptor) of the same compound?
**A.** The Ki was greater than 10000 nM.

**Q.** And the Ki (human κ opioid receptor)?
**A.** The Ki was greater than 10000 nM.

**Q.** What about the “Antinociception of inhibitor alone” value (nociceptive thresholds) of the same compound?
**A.** The value was “notable antinociception”.

**Q.** And the “Antagonism … by naltrexone” value (nociceptive thresholds)?
**A.** The value was “but not that produced by ketoconazole”.
